Assay results from PubChem BioAssay (NCI).
Values joined by “and” are separate entries in the source; they are usually repeats but may differ in a detail not shown here. Equal entries are not always repeated.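 Following 48 hours of exposure in 96-well plates, responses at five concentrations were used to interpolate endpoints linearly. Here, GI50 denotes the concentration required for 50% inhibition of growth. Definition used: TGI = concentration required for complete inhibition of growth.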

Columns and labels:
Test in all cases: DTP human tumour cell line panel, 48 h
CAKI-1 renal = test system: CAKI-1 renal
NCI/ADR-RES ovarian = test system: NCI/ADR-RES ovarian
NCI-H460 lung = test system: NCI-H460 lung
HCC-2998 colon = test system: HCC-2998 colon
HCT-15 colon = test system: HCT-15 colon
HCT-116 colon = test system: HCT-116 colon
LOX IMVI melanoma = test system: LOX IMVI melanoma
SK-MEL-2 melanoma = test system: SK-MEL-2 melanoma
TK-10 renal = test system: TK-10 renal
SR leukemia = test system: SR leukemia

SMILES | GI50 (CAKI-1 renal) | TGI (CAKI-1 renal) | GI50 (NCI/ADR-RES ovarian) | TGI (NCI/ADR-RES ovarian) | GI50 (NCI-H460 lung) | TGI (NCI-H460 lung) | GI50 (HCC-2998 colon) | TGI (HCC-2998 colon) | GI50 (HCT-15 colon) | TGI (HCT-15 colon) | GI50 (HCT-116 colon) | TGI (HCT-116 colon) | GI50 (LOX IMVI melanoma) | TGI (LOX IMVI melanoma) | GI50 (SK-MEL-2 melanoma) | TGI (SK-MEL-2 melanoma) | GI50 (TK-10 renal) | TGI (TK-10 renal) | GI50 (SR leukemia) | TGI (SR leukemia)
Cc1cnc(NC(=O)Nc2cc(Br)c(C)cc2OC[C@@H]2CNCCO2)cn1 | 1740 nM and 852 nM | > 10 µM and 6.16 µM | 0.841 µM and 0.679 µM | > 10 µM and 11.7 µM | 1470 nM and 928 nM | > 10 µM and 5.79 µM | 468 nM and 493 nM | > 10 µM and 5.28 µM | 1650 nM and 2380 nM | > 10 µM and 12.8 µM | 3090 nM and 3350 nM | > 10 µM and 13.3 µM | 828 nM and 1450 nM | 2.46 µM and 4.97 µM | 550 nM and 653 nM | > 10 µM and 13 µM | 0.703 µM and 2.18 µM | > 10 µM and 16.6 µM | 306 nM and 196 nM | 1.66 µM and 3.72 µM
CCN(Cc1cccc(F)c1)c1ccc(CO)c(Cl)c1 | 907 nM | > 36.3 µM | 15.9 µM | 53.6 µM | 306 nM | 18 µM | 10700 nM | 35.5 µM | 14500 nM | > 100 µM | 67.4 nM | 5.85 µM | 14100 nM | 28.8 µM | 4540 nM | 25.1 µM |  |  | 27300 nM | > 70.3 µM
COc1ccc(S(=O)(=O)N2CC(C)(C)CN(S(=O)(=O)c3ccc(OC)cc3)C2C(=O)NO)cc1 | > 14100 nM | > 20 µM | > 20 µM | > 20 µM | > 20000 nM | > 20 µM |  |  | > 20000 nM | > 20 µM | > 20000 nM | > 20 µM | > 11100 nM | > 20 µM | > 20000 nM | > 20 µM | 19.5 µM | > 20 µM | 13600 nM | > 20 µM
C#CCOc1cccc(-c2ncnc3cc(NC(=O)CCl)ccc23)c1 | 200 nM | 1.76 µM | 1.05 µM | 14.9 µM | 38 nM | 1.45 µM | 1090 nM | 2.75 µM | 17.9 nM | 1.71 µM | 34 nM | 1.48 µM | 38.5 nM | 1.34 µM | 1260 nM | 3.78 µM | 1.26 µM | 2.81 µM | 36.3 nM | > 100 µM
C=C1C(O)C2C(=C(CCc3ccccc3)C13CC3)C(=O)C(C)(CO)C2O (centres undefined) | > 100000 nM | > 100 µM | > 100 µM | > 100 µM | > 100000 nM | > 100 µM | > 100000 nM | > 100 µM | > 100000 nM | > 100 µM |  |  | > 100000 nM | > 100 µM | > 100000 nM | > 100 µM | 57.4 µM | > 100 µM | 38600 nM | > 100 µM
COc1cc(C#Cc2ccc(=O)oc2C#Cc2ccccc2)cc(OC)c1OC | 2120 nM | 4.26 µM | 6.39 µM | 18.9 µM | 3940 nM | 16.4 µM | 2600 nM | 9.87 µM | 2310 nM | 5.1 µM | 2040 nM | 4.57 µM | 1100 nM | 2.6 µM | 5690 nM | 12.7 µM | 4.57 µM | 13 µM | 1840 nM | > 31.3 µM
